Results taken from ChEMBL document CHEMBL4004851, “Room Temperature Neutron Crystallography of Drug Resistant HIV-1 Protease Uncovers Limitations of X-ray Structural Analysis at 100 K” (J Med Chem, 2017).

What was measured:
[1] = tested on: Human immunodeficiency virus type 1 protease (Human immunodeficiency virus 1), Q72874 [V32I,I47V,V82I]
[2] = tested on: Human immunodeficiency virus type 1 protease (Human immunodeficiency virus 1), Q72874 [V32I,I47V,V82I]; remark: listed apart in the source
[3] = tested on: Human immunodeficiency virus type 1 protease (Human immunodeficiency virus 1), Q72874 [V32I,I47V,V82I]; remark: listed apart in the source
[4] = tested on: Human immunodeficiency virus type 1 protease (Human immunodeficiency virus 1), Q72874 [V32I,I47V,V82I]; remark: listed apart in the source
[5] = biological target: T1, Human immunodeficiency virus type 1 protease (Human immunodeficiency virus 1, UniProt Q72874, I47V/V32I/V82I); experiment: Binding affinity to HIV1 protease V32I/I47V/V82I triple mutant at pH 4.0 and 28 degC by ITC method
[6] = tested on: Human immunodeficiency virus type 1 protease (Human immunodeficiency virus 1), Q72874 [V32I,I47V,V82I]; remark: listed apart in the source
[7] = tested on: Human immunodeficiency virus 1
Description: Binding affinity to wild type HIV1 protease assessed as deltaS level at pH 5.0 and 20 degC by ITC method

[8] = Binding affinity to wild type HIV1 protease at pH 5.0 and 20 degC by ITC method; parameters: species or system Human immunodeficiency virus 1
[9] = biological target: T1, Human immunodeficiency virus type 1 protease; experiment: Binding affinity to HIV1 protease V32I/I47V/V82I triple mutant at pH 5.8 and 28 degC by ITC method
[10] = tested on: Human immunodeficiency virus type 1 protease (Human immunodeficiency virus 1), Q72874 [V32I,I47V,V82I]; remark: listed apart in the source
[11] = tested on: Human immunodeficiency virus 1; remark: listed apart in the source
Description: Binding affinity to wild type HIV1 protease assessed as deltaG level at pH 5.0 and 20 degC by ITC method

[12] = tested on: Human immunodeficiency virus 1; remark: listed apart in the source
Description: Binding affinity to wild type HIV1 protease assessed as deltaH level at pH 5.0 and 20 degC by ITC method

[13] = tested on: Human immunodeficiency virus type 1 protease (Human immunodeficiency virus 1), Q72874 [V32I,I47V,V82I]; remark: listed apart in the source
[14] = tested on: Human immunodeficiency virus type 1 protease (Human immunodeficiency virus 1), Q72874 [V32I,I47V,V82I]; remark: listed apart in the source
[15] = tested on: Human immunodeficiency virus 1; experiment: Binding affinity to wild type HIV1 protease assessed as -TdeltaS level at pH 5.0 and 20 degC by ITC method

Chain of Human immunodeficiency virus type 1 protease (Human immunodeficiency virus 1), Q72874 [V32I,I47V,V82I] (Q72874 entry or part of it V32I/I47V/V82I): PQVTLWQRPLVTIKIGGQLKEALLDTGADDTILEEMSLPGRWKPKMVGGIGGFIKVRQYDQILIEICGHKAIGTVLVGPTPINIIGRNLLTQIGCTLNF
T1 sequence (Q72874 entry or part of it I47V/V32I/V82I): as the sequence (Q72874 entry or part of it V32I/I47V/V82I) above

With `CC(C)CN(C[C@@H](O)[C@H](Cc1ccccc1)NC(=O)O[C@H]1CCOC1)S(=O)(=O)c1ccc(N)cc1` [AMPRENAVIR] as the compound, how does the deltaS [1] read?
Its deltaS is 14.3 cal/mol.K.

What about the deltaH [2] of the same compound?
The deltaH was -6 kcal/mol.

And the -TdeltaS [3]?
The -TdeltaS was -4.2 kcal/mol.

What about the deltaG [4] of the same compound?
Its deltaG is -10.2 kcal/mol.

What about the Ki [5] of the same compound?
Its Ki is 10 nM.

And the -TdeltaS [6]?
Its -TdeltaS is -4.3 kcal/mol.

What about the deltaS [7] of the same compound?
Its deltaS is 18.1 cal/mol.K.

And the Ki [8]?
Its Ki is 0.39 nM.

And the Ki [9]?
The Ki was 35 nM.

And the deltaG [10]?
The deltaG was -11 kcal/mol.

What about the deltaG [11] of the same compound?
Its deltaG is -12.6 kcal/mol.

What about the deltaH [12] of the same compound?
Its deltaH is -7.3 kcal/mol.

And the deltaS [13]?
The deltaS was 14 cal/mol.K.

And the deltaH [14]?
The deltaH was -6.8 kcal/mol.

What about the -TdeltaS [15] of the same compound?
Its -TdeltaS is -5.3 kcal/mol.
